According to patent publication US20250066835A1 (priority 2021, published 2025):

Legend:
Assay type in all cases: cell-based
[1] = tested on: colistin-resistant Pseudomonas aeruginosa strain; assay: PTA staining / SEM backscattered electron image analysis of colistin-treated bacteria over time; conditions: colistin 2 mg/L, 37°C, after 60 minutes
Method: (§1) A Pseudomonas aeruginosa strain whose colistin sensitivity is known from an MIC value measured by a method of related art and a Pseudomonas aeruginosa strain whose colistin resistance is known are used. A bacterial solution suspended in a medium at initial concentration of 10^6/ml is treated with colistin of 2 mg/L, which is concentration that distinguishes between sensitive bacteria and resistant bacteria by the method of related art, is treated and cultured at 37° C., and a certain amount of the bacterial solution is sampled over time.
A polycarbonate track-etched membrane having a hole diameter of 0.2 μm is used as specimen equipment for the SEM observation of bacteria, and bacteria are uniformly collected in a certain area on the membrane. Conductivity is given to the specimen by pre-vaporizing platinum-palladium on a surface of the membrane. […]
(§2) Next, SEM observation is performed on each specimen from which the series of backscattered electron image (701) is obtained and a specimen in the control group prepared at the same timing, and twenty-five images per specimen and images of 300 to 500 bacterial cells are acquired. The number of images taken and the number of bacterial cells to be imaged are not limited to the above-described number as long as reproducibility of quantitative analysis can be ensured. […]

[2] = tested on: colistin-sensitive Pseudomonas aeruginosa strain; assay: PTA staining / SEM backscattered electron image analysis of colistin-treated bacteria over time (FIG. 7); conditions: colistin 2 mg/L, 37°C, initial concentration 10^6/ml
Method: as §1
A polycarbonate track-etched membrane having a hole diameter of 0.2 μm is used as specimen equipment for the SEM observation of bacteria, and bacteria are uniformly collected in a certain area on the membrane. Conductivity is given to the specimen by pre-vaporizing platinum-palladium on a surface of the membrane.
After washing a medium component on a bacterial collection surface with physiological saline, bacteria are treated and fixed for 5 minutes with a glutaraldehyde fixing solution of 2.5% having a protein cross-linking effect in order to prevent the morphological change of the bacteria. After washing the excess fixing solution with water, the bacteria are treated with the PTA aqueous solution having the weight concentration of 10% for 2 minutes and stained. After washing the excess stain with water, the bacteria are dried on the track-etched membrane to form a specimen for the SEM observation.
SEM observation conditions are set to an acceleration voltage of 5 kV, backscattered electron detection, and magnification of 7,000 times. […]
as §2

[3] = tested on: Pseudomonas aeruginosa strain; assay: Electronic staining with PTA aqueous solution and SEM observation after antibacterial agent treatment (FIG. 6); conditions: cultured at 37°C for 30 minutes, 10% PTA aqueous solution, 5 kV backscattered electron image
Method: As an example, in FIG. 6, a Pseudomonas aeruginosa strain is used as a material, bacteria in a control group not treated with the antibacterial agent and bacteria in a test group treated with antibacterial agent colistin are cultured at 37° C. for 30 minutes, the bacteria are collected on a track-etched membrane and fixed with glutaraldehyde of 2.5%, a specimen is prepared by performing electronic staining for 2 minutes by using a PTA aqueous solution having weight concentration of 10% as a stain and a platinum blue aqueous solution as a comparison, and a backscattered electron image is obtained by SEM observation at an acceleration voltage of 5 kV.
In the specimen stained with the PTA aqueous solution, an image of bacteria having low image brightness is observed in the control group, and an image of bacteria having high image brightness is observed in the test group. On the other hand, in the specimen stained with the platinum blue aqueous solution, the image brightness of the bacteria in both the control group and the test group is high, and no significant difference is observed between the control group and the test group.

## colistin
[1]
  ratio of the microbe 1 (corresponds to viability): about 95%
[2]; after 8 minutes
  ratio of the microbe 1 (corresponds to viability): 80%
[2]; after 30 minutes
  ratio of the microbe 1 (corresponds to viability): 60%
[2]; after 60 minutes
  ratio of the microbe 1 (corresponds to viability): 0%
[3]
  PTA staining intensity / image brightness of treated bacteria: strong PTA staining
